According to US20090069321A1, “CYANOMETHYL SUBSTITUTED N-ACYL TRYPTAMINES” (priority 2007, published 2009):

Molecular target: T1, human FSH receptor (Homo sapiens, UniProt P23945)
T1 construct: expressed in transfected cells; host or cells: CHO cells (hFSHR clone 16)
T1 sequence (P23945 18-695): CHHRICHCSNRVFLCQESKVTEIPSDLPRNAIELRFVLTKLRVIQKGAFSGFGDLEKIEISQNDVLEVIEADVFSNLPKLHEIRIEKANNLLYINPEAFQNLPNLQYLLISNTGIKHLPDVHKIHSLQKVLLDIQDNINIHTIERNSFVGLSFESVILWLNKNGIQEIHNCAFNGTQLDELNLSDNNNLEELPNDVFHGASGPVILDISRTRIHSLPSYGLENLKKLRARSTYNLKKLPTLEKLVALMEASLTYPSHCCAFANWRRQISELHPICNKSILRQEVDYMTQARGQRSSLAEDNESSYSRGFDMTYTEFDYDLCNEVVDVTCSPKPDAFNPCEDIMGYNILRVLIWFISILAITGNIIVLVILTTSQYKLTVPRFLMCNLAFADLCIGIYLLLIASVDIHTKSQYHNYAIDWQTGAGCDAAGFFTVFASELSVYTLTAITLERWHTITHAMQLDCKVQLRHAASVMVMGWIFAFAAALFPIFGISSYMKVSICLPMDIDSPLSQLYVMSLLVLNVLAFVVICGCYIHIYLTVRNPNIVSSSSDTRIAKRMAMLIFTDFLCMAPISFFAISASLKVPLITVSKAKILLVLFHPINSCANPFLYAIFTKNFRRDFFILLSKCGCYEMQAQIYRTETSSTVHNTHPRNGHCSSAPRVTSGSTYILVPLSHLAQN
Assay: HTRF assay for measuring cAMP in cells (FSH antagonism)
Type: cell-based
Details: hFSHR clone 16 cells (CHO cells stably transfected with the human FSH receptor); in the presence of 1e-9 mol/l hFSH; 37° C. for 2 h; read-out: IC50, FSH antagonistic effect in the HTRF assay
Experimental: HTRF Assay for Measuring cAMP in Cells
The method is based on a competitive immunoassay between native cAMP, which has been produced by the cells, and cAMP which is labelled with cAMPD2 conjugate. The tracer binding was visualized by a monoclonal antibody, anti-cAMP labelled with cryptate [HTRF=homogeneous time-resolved fluorescence].
The specific signal is inversely proportional to the cAMP concentration of the samples employed.
The 665 nm/620 nm fluorescence ratio was evaluated.
The following material was used: 96-well plates for the tissue culture, 96-well plates with black edge and black base (e.g. Fluotrac 600 from Greiner), 96-well plates for the substance dilutions of polypropylene and cAMP Femtomolar (4000wells Kit, CIS Bio International # 62AM5PEJ).
The following reagents were used: BSA (bovine serum albumin) Fraction V protease-free, IBMX (3-isobutyl-1-methylxanthine), hFSH (human follicle stimulating hormone), Triton X-100 analytical grade, potassium fluoride analytical grade, G 418 (Geneticin) and Accutase.
Buffer 1 (washing and testing buffer) contained PBS, 1 mM CaCl2, 1 mM MgCl2, 0.2% glucose; 0.1% BSA, 1 mM IBMX.
Buffer 2 (2× lysis buffer) contained 1% Triton X-100 in PBS (without CaCl2 and MgCl2).
Buffer 3 (assay buffer) contained 50 mM potassium phosphate buffer (pH 7.0); 800 mM potassium fluoride; 0.2% BSA (always added fresh).
On day 1, the cells were seeded in 96-well plates (3×10^4 cells per well hFSHR clone 16 cells (CHO cells stably transfected with the human FSH receptor in 150 μl of medium). The next day, test substance dilutions were made up. For this purpose, all the substances were diluted in ice-cold buffer 1 (with or without hFSH), and the substance dilutions were placed on ice until applied to the cells.
The cell supernatant was then aspirated off, and the cells were washed 2× with 200 μl of buffer 1. The cells were treated with 60 μl of the appropriate substance concentrations at 37° C. for 2 h. The cells were then lysed with 60 μl of buffer 2 (put onto the supernatant) (on a plate shaker at RT for 30 min).
The test conjugates (cAMP-D2 and anti-cAMP cryptate, CIS Bio) were diluted in buffer 3 in accordance with the manufacturers' information. The actual mixture for measurement was pipetted into a black 96-well plate (in each case 15 μl of the cell lysate diluted with 35 μl of buffer 1; firstly 25 μl of cAMP-D2 conjugate were pipetted and, after 10 min, 25 μl of the anti-cAMP cryptate were added). This is followed by incubation at RT for 90 minutes. The measurement was carried out in a PheraStar (BMG).
Tissue Culture Conditions
Dose-effect curve (hFSH) for the human receptor: 1e-8, 3e-9, 1e-9, 3e-10, 1e-10, 3e-11, 1e-11, 3e-12 mol/l.
The test substances were employed in suitable dilutions in the absence (test for agonism) and in the presence of 1e-9 mol/l hFSH.
The values of the well ratio were averaged and then entered directly in SigmaPlot versus the concentrations. The maximum and minimum values were determined for each plate, and half the difference is to be regarded as IC50.

SMILES	IC50
CNC(=O)c1cc(F)cc(-c2ccc(OC(C)C)c(C(=O)NC(CC#N)Cc3c[nH]c4ccccc34)c2)c1 (stereo not shown) [Example 1, 5′-Fluoro-4-isopropoxy-biphenyl-3,3′-dicarboxylic acid 3-{[2-cyano-1-(1H-indol-3-ylmethyl)-ethyl]-amide}3′-methylamide]	3500 nM
Cc1cc(C(N)=O)ccc1C#Cc1ccc(OC(F)(F)F)c(C(=O)NC(CC#N)Cc2c[nH]c3ccccc23)c1 (stereo not shown) [Example 4, 5-(4-Carbamoyl-2-methylphenylethynyl)-N-[2-cyano-1-(1H-indol-3-ylmethyl)-ethyl]-2-trifluoromethoxy-benzamide]	250 nM
CC(C)Oc1ccc(-c2ccc(C(=O)N3CCOCC3)c(Cl)c2)cc1C(=O)NC(CC#N)Cc1c[nH]c2ccccc12 (stereo not shown) [Example 6, 3′-Chloro-4-isopropoxy-4′-(morpholine-4-carbonyl)-biphenyl-3-carboxylic acid [2-cyano-1-(1H-indol-3-ylmethyl)-ethyl]-amide]	80 nM
CC(C)Oc1ccc(C#Cc2ccc(C(N)=O)cc2)cc1C(=O)NC(CC#N)Cc1c[nH]c2ccccc12 (stereo not shown) [Example 8, 5-(4-Carbamoyl-phenylethynyl)-N-[2-cyano-1-(1H-indol-3-ylmethyl)-ethyl]-2-isopropoxy-benzamide]	200 nM
CNC(=O)c1ccc(C#Cc2ccc(OC(C)C)c(C(=O)NC(CC#N)Cc3c[nH]c4ccccc34)c2)cc1 (stereo not shown) [Example 9, N-[2-Cyano-1-(1H-indol-3-ylmethyl)-ethyl]-2-isopropoxy-5-(4-methylcarbamoyl-phenylethynyl)-benzamide]	750 nM

More lines, now with the values ahead:

IC50	SMILES
3500 nM	CNC(=O)c1cccc(C#Cc2ccc(OC(C)C)c(C(=O)NC(CC#N)Cc3c[nH]c4ccccc34)c2)c1 (stereo not shown) [Example 10, N-[2-Cyano-1-(1H-indol-3-ylmethyl)-ethyl]-2-isopropoxy-5-(3-methylcarbamoyl-phenylethynyl)-benzamide]
10000 nM	CNC(=O)c1ccccc1C#Cc1ccc(OC(C)C)c(C(=O)NC(CC#N)Cc2c[nH]c3ccccc23)c1 (stereo not shown) [Example 11, N-[2-Cyano-1-(1H-indol-3-ylmethyl)-ethyl]-2-isopropoxy-5-(2-methylcarbamoyl-phenylethynyl)-benzamide]
